# Source: patent publication US20180021303A1, “BKCA CHANNEL ACTIVATOR FOR TREATING MUSCULAR DISORDER” (Canbex Therapeutics Limited, priority 2015, published 2018)
# Columns and labels:
# [1] = system: Biozzi ABH mice with visible spasticity (relapsing progressive experimental autoimmune encephalomyelitis); experiment: Spasticity (limb stiffness against a strain gauge) in Biozzi ABH mice with relapsing progressive experimental autoimmune encephalomyelitis; format: in vivo, mouse; settings: result in words
# Experimental: BMS 204352 and NS 1619 were dissolved in ethanol:cremophor:phosphate buffered saline 1:1:18. […] Paxilline was used at 1 mg/kg, just below doses reported to cause tremors in mice.
# Biozzi ABH were injected with mouse spinal cord homogenate in Freunds adjuvant on day 0 and day 7 based on published protocols (Al-Izki S. et al. Mult Scler Rel Dis. 2012; 1: 29-38 and relapsing progressive experimental autoimmune encephalomyelitis developed. Following the development of visible spasticity animals were randomly allocated to treatment groups and spasticity was assessed by measuring limb stiffness against a strain guage (Pryce G. et al. FASEB J. 28: 2014; 117-130).
# Animals were injected with: • BMS 204352: 20 mg/kg i.p. n=11 (FIG. 1; Table 2); • NS 1619: 10 mg/kg i.p. n=13 (FIG. 2; Table 1); • NS 11021: 10 mg/kg i.p. n=13 (FIG. 3; Table 3) in ethanol:cremophor:PBS (1:1:18).
# [2] = from previously published data; cited from earlier work
# [3] = from previously published data; cited from earlier work; remark: listed apart in the source
SMILES,Efficacy in a mouse model of spasticity in multiple sclerosis [1],Tolerability [2],CNS penetration [3]
"COc1ccc(Cl)cc1[C@]1(F)C(=O)Nc2cc(C(F)(F)F)ccc21 [BMS 204352, (3S)-3-(5-chloro-2-methoxyphenyl)-3-fluoro-1,3-dihydro-6-(trifluoromethyl)-2H-Indol-2-one]",effective,well tolerated,CNS penetrant
"O=c1[nH]c2cc(C(F)(F)F)ccc2n1-c1cc(C(F)(F)F)ccc1O [NS 1619, 1,3-dihydro-1-[2-hydroxy-5-(trifluoromethyl)phenyl]-5-(trifluoromethyl)-2H-benzimidazol-2-one]",–,–,CNS excluded
